Consider 19 compounds from patent US8859596B2, “Compounds as cannabinoid receptor ligands” (priority 2008, dated 2014).

The structures appear in SMILES notation. pKi: −log10 of the molar value. Read-outs that look alike come from different tables or passages of the source.

One assay concerns the target human CB2 receptors (Homo sapiens (Human), UniProt P34972). The assay can be described thus: human CB2 radioligand binding assay ([3H]CP 55,940 competition). The procedure: (§1) The CB1 and CB2 radioligand binding assays described herein are utilized to ascertain the affinity of compounds of the present application for binding to CB2 relative to CB1 receptors.
HEK293 cells stably expressing human CB2 receptors were grown until a confluent monolayer was formed. Briefly, the cells were harvested and homogenized in TE buffer (50 mM Tris-HCl, 1 mM MgCl2, and 1 mM EDTA) using a polytron for 2×10 second bursts in the presence of protease inhibitors, followed by centrifugation at 45,000×g for 20 minutes. The final membrane pellet was re-homogenized in storage buffer (50 mM Tris-HCl, 1 mM MgCl2, and 1 mM EDTA and 10% sucrose) and frozen at −78° C. until used. Saturation binding reactions were initiated by the addition of membrane preparation (protein concentration of 5 μg/well for human CB2) into wells of a deep well plate containing [^3H]CP 55,940 (120 Ci/mmol, a nonselective CB agonist commercially available from Tocris) in assay buffer (50 mM Tris, 2.5 mM EDTA, 5 mM MgCl2, and 0.5 mg/mL fatty acid free BSA, pH 7.4). After 90 min incubation at 30° C., binding reaction was terminated by the addition of 300 μL/well of cold assay buffer followed by rapid vacuum filtration through a UniFilter-96 GF/C filter plates (pre-soaked in 1 mg/mL BSA for 2 hours). The bound activity was counted in a TopCount using Microscint-20. Saturation experiments were conducted with twelve concentrations of [^3H]CP 55,940 ranging from 0.01 to 8 nM. Competition experiments were conducted with 0.5 nM [^3H]CP 55,940 and five concentrations (0.01 nM to 10 μM) of displacing ligands. The addition of 10 μM unlabeled CP 55,940 (Tocris, Ellisville, Mo.) was used to assess nonspecific binding.

For another assay, the target named is rat CB2 (Rattus norvegicus (Rat), UniProt Q9QZN9). The assay can be described thus: rat CB2 radioligand binding assay ([3H]CP 55,940 competition). The procedure: as §1
HEK293 cells stably expressing rat CB2 receptors were grown until a confluent monolayer was formed. Briefly, the cells were harvested and homogenized in TE buffer (50 mM Tris-HCl, 1 mM MgCl2, and 1 mM EDTA) using a polytron for 2×10 second bursts in the presence of protease inhibitors, followed by centrifugation at 45,000×g for 20 minutes. The final membrane pellet was re-homogenized in storage buffer (50 mM Tris-HCl, 1 mM MgCl2, and 1 mM EDTA and 10% sucrose) and frozen at −78° C. until used. Saturation binding reactions were initiated by the addition of membrane preparation (protein concentration of 20 μg/well for rat CB2) into wells of a deep well plate containing [^3H]CP 55,940 (120 Ci/mmol, a nonselective CB agonist commercially available from Tocris) in assay buffer (50 mM Tris, 2.5 mM EDTA, 5 mM MgCl2, and 0.5 mg/mL fatty acid free BSA, pH 7.4). After 45 min incubation at 30° C., binding reaction was terminated by the addition of 300 μl/well of cold assay buffer followed by rapid vacuum filtration through a UniFilter-96 GF/C filter plates (pre-soaked in 1 mg/mL BSA for 2 hours). The bound activity was counted in a TopCount using Microscint-20. Saturation experiments were conducted with twelve concentrations of [^3H]CP 55,940 ranging from 0.01 to 8 nM. Competition experiments were conducted with 0.5 nM [^3H]CP 55,940 and five concentrations of displacing ligands selected from the range of 0.01 nM to […] addition of 10 μM unlabeled CP 55,940 (Tocris, Ellisville, Mo.) was used to assess nonspecific binding.

Where [1] appears, read: HEK293 membranes, 0.5 nM [3H]CP 55,940, read-out: human CB2 (Ki).
The mark [2] stands for this setting: HEK293 membranes, 0.5 nM [3H]CP 55,940, read-out: rat CB2 (Ki).

Chain of human CB2 receptors (P34972 whole entry): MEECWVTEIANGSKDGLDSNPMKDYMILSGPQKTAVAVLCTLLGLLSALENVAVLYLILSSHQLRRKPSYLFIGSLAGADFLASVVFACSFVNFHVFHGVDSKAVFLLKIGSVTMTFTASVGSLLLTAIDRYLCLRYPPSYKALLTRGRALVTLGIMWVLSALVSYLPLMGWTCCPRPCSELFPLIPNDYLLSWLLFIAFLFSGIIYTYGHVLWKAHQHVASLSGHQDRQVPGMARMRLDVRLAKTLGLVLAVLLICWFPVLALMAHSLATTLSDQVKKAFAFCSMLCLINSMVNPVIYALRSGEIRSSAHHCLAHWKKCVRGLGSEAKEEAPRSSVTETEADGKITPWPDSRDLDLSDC
Chain of rat CB2 (Q9QZN9 whole entry): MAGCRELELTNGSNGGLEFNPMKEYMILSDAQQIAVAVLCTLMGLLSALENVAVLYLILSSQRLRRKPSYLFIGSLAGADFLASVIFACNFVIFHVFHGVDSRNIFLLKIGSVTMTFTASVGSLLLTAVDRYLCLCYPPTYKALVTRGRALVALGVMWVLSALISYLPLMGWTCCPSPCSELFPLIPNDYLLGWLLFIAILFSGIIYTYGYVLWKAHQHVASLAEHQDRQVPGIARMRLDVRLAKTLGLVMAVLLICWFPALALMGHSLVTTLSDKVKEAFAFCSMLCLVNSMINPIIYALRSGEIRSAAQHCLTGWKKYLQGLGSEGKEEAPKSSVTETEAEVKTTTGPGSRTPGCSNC

For `CCCCn1nc(C(C)(C)C)s/c1=N\C(=O)c1cc(C(F)(F)F)ccc1N/N=C\c1cccc(C)n1` [Example 35, N-[(2Z)-3-butyl-5-tert-butyl-1,3,4-thiadiazol-2(3H)-ylidene]-2-{(2Z)-2-[(6-methylpyridin-2-yl)methylene]hydrazino}-5-(trifluoromethyl)benzamide], the pKi was 6.73 at human CB2 receptors and 7.70 at rat CB2.
On to `CCCCn1nc(C2(C)CC2)s/c1=N\C(=O)c1cc(C(F)(F)F)ccc1ONC(C)(C)C` [Example 145, 2-[(tert-butylamino)oxy]-N-[(2Z)-3-butyl-5-(1-methylcyclopropyl)-1,3,4-thiadiazol-2(3H)-ylidene]-5-(trifluoromethyl)benzamide], for which the pKi on human CB2 receptors (setting [1]) was 7.80; at rat CB2 (setting [2]) it was 8.60.
On to `Cn1c(C(C)(C)C)c/c(=N\C(=O)c2cc(C(F)(F)F)ccc2ONC(C)(C)C)n1CC1CC1` [Example 146, 2-[(tert-butylamino)oxy]-N-[(3E)-5-tert-butyl-2-(cyclopropylmethyl)-1-methyl-1,2-dihydro-3H-pyrazol-3-ylidene]-5-(trifluoromethyl)benzamide], for which the pKi is 7.27 on human CB2 receptors and 7.85 on rat CB2.
For the compound `CC(C)(C)NOc1ccc(C(F)(F)F)cc1C(=O)/N=c1\sc(C(C)(C)C)nn1CC1CCCCO1` (centres unmarked) [Example 147, 2-[(tert-butylamino)oxy]-N-[(2Z)-5-tert-butyl-3-(tetrahydro-2H-pyran-2-ylmethyl)-1,3,4-thiadiazol-2(3H)-ylidene]-5-(trifluoromethyl)benzamide], the pKi at human CB2 receptors (setting [1]) was 8.77; on rat CB2 (setting [2]), 9.15.
On to `CCCCn1nc(C(C)(C)C)s/c1=N\C(=O)c1cc(C(F)(F)F)ccc1/N=N/C(C)(C)C` [Example 148, N-[(2Z)-3-butyl-5-tert-butyl-1,3,4-thiadiazol-2(3H)-ylidene]-2-[(E)-tert-butyldiazenyl]-5-(trifluoromethyl)benzamide], for which the pKi on human CB2 receptors (setting [1]) is 8.21; on rat CB2 (setting [2]) it was 7.82.
Consider `CCCCn1/c(=N/C(=O)c2cc(C(F)(F)F)ccc2ONC(C)(C)C)cc(C(C)(C)C)n1C` [Example 149, 2-[(tert-butylamino)oxy]-N-[(3E)-2-butyl-5-tert-butyl-1-methyl-1,2-dihydro-3H-pyrazol-3-ylidene]-5-(trifluoromethyl)benzamide], for which the figures for the pKi on human CB2 receptors and on rat CB2 were 7.11 and 8.26, respectively.
In the case of `CCCCn1nc(C(C)(C)C)s/c1=N\C(=O)c1cc(C(F)(F)F)ccc1O/N=C(\C)C(C)(C)C` [Example 150, N-[(2Z)-3-butyl-5-tert-butyl-1,3,4-thiadiazol-2(3H)-ylidene]-5-(trifluoromethyl)-2-({[(1E)-1,2,2-trimethylpropylidene]amino}oxy)benzamide], the pKi on human CB2 receptors (setting [1]) is 6.67; at rat CB2 (setting [2]), 6.55.
With `CC(C)Cn1nc(C(C)(C)C)s/c1=N\C(=O)c1cc(C(F)(F)F)ccc1ONC(C)(C)C` [Example 152, 2-[(tert-butylamino)oxy]-N-[(2Z)-5-tert-butyl-3-isobutyl-1,3,4-thiadiazol-2(3H)-ylidene]-5-(trifluoromethyl)benzamide], the pKi at human CB2 receptors (setting [1]) is 7.54; on rat CB2 (setting [2]) it was 7.51.
Regarding `Cn1c(C(C)(C)C)c/c(=N\C(=O)c2cc(C(F)(F)F)ccc2ONC(C)(C)C)n1CC1CCC1` [Example 155, 2-[(tert-butylamino)oxy]-N-[(3E)-5-tert-butyl-2-(cyclobutylmethyl)-1-methyl-1,2-dihydro-3H-pyrazol-3-ylidene]-5-(trifluoromethyl)benzamide], the values for the pKi on human CB2 receptors and at rat CB2 were 7.57 and 7.85, respectively.
Taken in the same sequence, the figures for `Cn1c(C(C)(C)C)c/c(=N\C(=O)c2cc(C(F)(F)F)ccc2ONC(C)(C)C)n1CCC(F)(F)F` [Example 156, 2-[(tert-butylamino)oxy]-N-[(3E)-5-tert-butyl-1-methyl-2-(3,3,3-trifluoropropyl)-1,2-dihydro-3H-pyrazol-3-ylidene]-5-(trifluoromethyl)benzamide] were 7.17 and 8.00.
As for `CCCCn1ccc(C(C)(C)C)c/c1=N\C(=O)c1cc(C(F)(F)F)ccc1ONC(C)(C)C` [Example 157, 2-[(tert-butylamino)oxy]-N-[(2E)-1-butyl-4-tert-butylpyridin-2(1H)-ylidene]-5-(trifluoromethyl)benzamide], the pKi on human CB2 receptors (setting [1]) was 6.89; at rat CB2 (setting [2]), 8.03.
With `COCCn1nc(C(C)(C)C)s/c1=N\C(=O)c1cc(C(F)(F)F)ccc1ONC(C)(C)C` [Example 158, 2-[(tert-butylamino)oxy]-N-[(2Z)-5-tert-butyl-3-(2-methoxyethyl)-1,3,4-thiadiazol-2(3H)-ylidene]-5-(trifluoromethyl)benzamide], the values for the negative-log Ki (pKi) at human CB2 receptors (setting [1]) and at rat CB2 (setting [2]) were 7.41 and 8.44, respectively.
With `CCCCn1/c(=N/C(=O)c2cc(C(F)(F)F)ccc2ONC(C)C)cc(C(C)(C)C)n1C` [Example 159, N-[(3E)-2-butyl-5-tert-butyl-1-methyl-1,2-dihydro-3H-pyrazol-3-ylidene]-2-[(isopropylamino)oxy]-5-(trifluoromethyl)benzamide], the pKi on human CB2 receptors (setting [1]) was 7.80; on rat CB2 (setting [2]) it was 8.28.
In the case of `CCCCn1cc(C(C)(C)C)cc/c1=N\C(=O)c1cc(C(F)(F)F)ccc1ONC(C)(C)C` [Example 160, 2-[(tert-butylamino)oxy]-N-[(2E)-1-butyl-5-tert-butylpyridin-2(1H)-ylidene]-5-(trifluoromethyl)benzamide], the pKi at human CB2 receptors (setting [1]) was 7.06; on rat CB2 (setting [2]), 8.23.
Turning to `Cn1c(C(C)(C)C)c/c(=N\C(=O)c2cc(C#N)ccc2ONC(C)(C)C)n1C[C@H]1CCCO1` [Example 161, 2-[(tert-butylamino)oxy]-N-{(3E)-5-tert-butyl-1-methyl-2-[(2R)-tetrahydrofuran-2-ylmethyl]-1,2-dihydro-3H-pyrazol-3-ylidene}-5-cyanobenzamide], the pKi on human CB2 receptors (setting [1]) was 6.68; at rat CB2 (setting [2]), 7.96.
`CCCCn1nc(C(C)(C)C)s/c1=N\C(=O)c1cc(Cl)ccc1ONC(C)(C)C` [Example 162, 2-[(tert-butylamino)oxy]-N-[(2Z)-3-butyl-5-tert-butyl-1,3,4-thiadiazol-2(3H)-ylidene]-5-chlorobenzamide]: the figures for the pKi at human CB2 receptors (setting [1]) and at rat CB2 (setting [2]) were 8.07 and 9.22, respectively.
With `CC(C)(C)NOc1ccc(C(F)(F)F)cc1C(=O)/N=c1\sc(C(C)(C)C)nn1CC1CC1` [Example 163, 2-[(tert-butylamino)oxy]-N-[(2Z)-5-tert-butyl-3-(cyclopropylmethyl)-1,3,4-thiadiazol-2(3H)-ylidene]-5-(trifluoromethyl)benzamide], the pKi is 7.80 at human CB2 receptors (setting [1]) and 8.52 at rat CB2 (setting [2]).
On to `Cn1c(C(C)(C)C)c/c(=N\C(=O)c2cc(Cl)ccc2ONC(C)(C)C)n1C[C@H]1CCCO1` [Example 168, 2-[(tert-butylamino)oxy]-N-{(3E)-5-tert-butyl-1-methyl-2-[(2R)-tetrahydrofuran-2-ylmethyl]-1,2-dihydro-3H-pyrazol-3-ylidene}-5-chlorobenzamide], for which the values for the pKi on human CB2 receptors (setting [1]) and at rat CB2 (setting [2]) were 7.28 and 7.68, respectively.
On to `CCCCn1nc(C(C)(C)C)s/c1=N\C(=O)c1cc(C(F)(F)F)ccc1ONC(=O)C(C)(C)C` [Example 169, N-[(2Z)-3-butyl-5-tert-butyl-1,3,4-thiadiazol-2(3H)-ylidene]-2-{[(2,2-dimethylpropanoyl)amino]oxy}-5-(trifluoromethyl)benzamide], for which the pKi on human CB2 receptors (setting [1]) and at rat CB2 (setting [2]) was 9.22 in each case.

One may read the pKi as −log10 of the Ki, conventionally taken in molar units.
